Experimental data taken from patent publication US11203591B2, “Substituted 6-azabenzimidazole compounds” (Gilead Sciences, Inc., priority 2018, dated 2021).
pIC50: −log10 of the molar value.

Target: human HPK1 (MAP4K1) (Homo sapiens (Human), UniProt Q92918)
Test: HPK1 IC50 Assay (TR-FRET peptide phosphorylation)
Format: biochemical
Conditions: 0.15 nM HPK1, 10 μM ATP, 1 μM STK S1 peptide substrate; geometric mean
In short: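 Readout: TR-FRET (665 nm/620 nm) after EDTA stop, detecting STK S1 peptide (1 μM) phosphorylation by 0.15 nM HPK1 kinase domain, ATP-pre-activated, at 10 μM ATP over 3 h, 25° C, pH 7.0. IC50s from four-parameter variable-slope fits, normalized to staurosporine and DMSO, averaged geometrically.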

Chain of human HPK1 (MAP4K1) (Q92918 17-274): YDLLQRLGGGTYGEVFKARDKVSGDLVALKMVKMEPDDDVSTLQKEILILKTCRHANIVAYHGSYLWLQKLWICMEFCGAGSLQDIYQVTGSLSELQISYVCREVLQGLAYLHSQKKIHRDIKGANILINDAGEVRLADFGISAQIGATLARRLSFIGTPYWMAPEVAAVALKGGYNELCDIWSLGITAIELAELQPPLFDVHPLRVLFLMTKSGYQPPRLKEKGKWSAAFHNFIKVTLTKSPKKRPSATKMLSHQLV

Compound	pIC50
CCNC(=O)c1cc(Nc2nc(-c3cc4c(nc3F)C(C)(C)C(=O)N4[C@H]3C[C@@](C)(N4CCCCC4)C3)cc3ncn(C(C)C)c23)c(F)c(F)c1Cl [Example 273, 2-chloro-N-ethyl-3,4-difluoro-5-((6-(5-fluoro-3,3-dimethyl-1-((1s,3s)-3-methyl-3-(piperidin-1-yl)cyclobutyl)-2-oxo-2,3-dihydro-1H-pyrrolo[3,2-b]pyridin-6-yl)-3-isopropyl-3H-imidazo[4,5-c]pyridin-4-yl)amino)benzamide]	10.15
CC(C)n1cnc2cc(-c3cnc4c(c3)N([C@H]3C[C@@](C)(N5CCCCC5)C3)C(=O)C4(C)C)nc(Nc3cc(C(=O)NCC(F)F)c(F)c(F)c3F)c21 [Example 274, N-(2,2-difluoroethyl)-5-((6-(3,3-dimethyl-1-((1s,3s)-3-methyl-3-(piperidin-1-yl)cyclobutyl)-2-oxo-2,3-dihydro-1H-pyrrolo[3,2-b]pyridin-6-yl)-3-isopropyl-3H-imidazo[4,5-c]pyridin-4-yl)amino)-2,3,4-trifluorobenzamide]	10.40
CC(C)n1cnc2cc(-c3ccc4c(c3)N([C@H]3C[C@@](C)(N5CCCCC5)C3)C(=O)C43CC3)nc(Nc3cc(C(=O)NCC(F)F)c(Cl)c(F)c3F)c21 [Example 275, 2-chloro-N-(2,2-difluoroethyl)-3,4-difluoro-5-((3-isopropyl-6-(1′-((1s,3s)-3-methyl-3-(piperidin-1-yl)cyclobutyl)-2′-oxospiro[cyclopropane-1,3′-indolin]-6′-yl)-3H-imidazo[4,5-c]pyridin-4-yl)amino)benzamide]	10.22
CCNC(=O)c1cc(Nc2nc(-c3ccc4c(c3)N([C@H]3C[C@@](C)(N5CCCCC5)C3)C(=O)C4(C)C)cc3ncn(C(C)C)c23)c(F)cc1C [Example 276, 5-((6-(3,3-dimethyl-1-((1s,3s)-3-methyl-3-(piperidin-1-yl)cyclobutyl)-2-oxoindolin-6-yl)-3-isopropyl-3H-imidazo[4,5-c]pyridin-4-yl)amino)-N-ethyl-4-fluoro-2-methylbenzamide]	10.22
Cc1c(C(=O)NCC(F)F)cc(Nc2nc(-c3cc4c(nc3F)C(C)(C)C(=O)N4[C@H]3C[C@@](C)(N4CCCC5(CC5)C4)C3)cc3ncn(C(C)C)c23)c(F)c1F [Example 277, N-(2,2-difluoroethyl)-3,4-difluoro-5-((6-(5-fluoro-3,3-dimethyl-1-((1s,3s)-3-methyl-3-(5-azaspiro[2.5]octan-5-yl)cyclobutyl)-2-oxo-2,3-dihydro-1H-pyrrolo[3,2-b]pyridin-6-yl)-3-isopropyl-3H-imidazo[4,5-c]pyridin-4-yl)amino)-2-methylbenzamide]	10.15
CCNC(=O)c1cc(Nc2nc(-c3cnc4c(c3)N([C@H]3C[C@@](C)(N5CCCCC5)C3)C(=O)C4(C)C)cc3ncn(C(C)C)c23)c(F)c(F)c1F [Example 278, 5-((6-(3,3-dimethyl-1-((1s,3s)-3-methyl-3-(piperidin-1-yl)cyclobutyl)-2-oxo-2,3-dihydro-1H-pyrrolo[3,2-b]pyridin-6-yl)-3-isopropyl-3H-imidazo[4,5-c]pyridin-4-yl)amino)-N-ethyl-2,3,4-trifluorobenzamide]	9.70
CCNC(=O)c1cc(Nc2nc(-c3cc4c(nc3F)C(C)(C)C(=O)N4[C@H]3C[C@@](C)(N4CCCC5(CC5)C4)C3)cc3ncn(C(C)C)c23)c(F)c(F)c1C [Example 279, N-ethyl-3,4-difluoro-5-((6-(5-fluoro-3,3-dimethyl-1-((1s,3s)-3-methyl-3-(5-azaspiro[2.5]octan-5-yl)cyclobutyl)-2-oxo-2,3-dihydro-1H-pyrrolo[3,2-b]pyridin-6-yl)-3-isopropyl-3H-imidazo[4,5-c]pyridin-4-yl)amino)-2-methylbenzamide]	10.00
CNC(=O)c1cc(Nc2nc(-c3cnc4c(c3)N([C@H]3C[C@@](C)(N5CCCCC5)C3)C(=O)C4(C)C)cc3ncn(C(C)C)c23)c(F)c(F)c1Cl [Example 281, 2-chloro-5-((6-(3,3-dimethyl-1-((1s,3s)-3-methyl-3-(piperidin-1-yl)cyclobutyl)-2-oxo-2,3-dihydro-1H-pyrrolo[3,2-b]pyridin-6-yl)-3-isopropyl-3H-imidazo[4,5-c]pyridin-4-yl)amino)-3,4-difluoro-N-methylbenzamide]	10.15
CC(C)n1cnc2cc(-c3cnc4c(c3)N([C@H]3C[C@@](C)(N5CCCC6(CC6)C5)C3)C(=O)C4(C)C)nc(Nc3cc(C(=O)NCC(F)F)c(Cl)c(F)c3F)c21 [Example 282, 2-chloro-N-(2,2-difluoroethyl)-5-((6-(3,3-dimethyl-1-((1s,3s)-3-methyl-3-(5-azaspiro[2.5]octan-5-yl)cyclobutyl)-2-oxo-2,3-dihydro-1H-pyrrolo[3,2-b]pyridin-6-yl)-3-isopropyl-3H-imidazo[4,5-c]pyridin-4-yl)amino)-3,4-difluorobenzamide]	10.00
CCNC(=O)c1cc(Nc2nc(-c3cnc4c(c3)N([C@H]3C[C@@](C)(N5CCCC6(CC6)C5)C3)C(=O)C4(C)C)cc3ncn(C(C)C)c23)c(F)c(F)c1Cl [Example 283, 2-chloro-5-((6-(3,3-dimethyl-1-((1s,3s)-3-methyl-3-(5-azaspiro[2.5]octan-5-yl)cyclobutyl)-2-oxo-2,3-dihydro-1H-pyrrolo[3,2-b]pyridin-6-yl)-3-isopropyl-3H-imidazo[4,5-c]pyridin-4-yl)amino)-N-ethyl-3,4-difluorobenzamide]	10.05
Cc1c(C(=O)NCC(F)F)cc(Nc2nc(-c3cnc4c(c3)N([C@H]3C[C@@](C)(N5CCCC6(CC6)C5)C3)C(=O)C4(C)C)cc3ncn(C(C)C)c23)c(F)c1F [Example 284, N-(2,2-difluoroethyl)-5-((6-(3,3-dimethyl-1-((1s,3s)-3-methyl-3-(5-azaspiro[2.5]octan-5-yl)cyclobutyl)-2-oxo-2,3-dihydro-1H-pyrrolo[3,2-b]pyridin-6-yl)-3-isopropyl-3H-imidazo[4,5-c]pyridin-4-yl)amino)-3,4-difluoro-2-methylbenzamide]	10.00
CCNC(=O)c1cc(Nc2nc(-c3cnc4c(c3)N([C@H]3C[C@@](C)(N5CCCC6(CC6)C5)C3)C(=O)C4(C)C)cc3ncn(C(C)C)c23)c(F)c(F)c1C [Example 285, 5-((6-(3,3-dimethyl-1-((1s,3s)-3-methyl-3-(5-azaspiro[2.5]octan-5-yl)cyclobutyl)-2-oxo-2,3-dihydro-1H-pyrrolo[3,2-b]pyridin-6-yl)-3-isopropyl-3H-imidazo[4,5-c]pyridin-4-yl)amino)-N-ethyl-3,4-difluoro-2-methylbenzamide]	10.00
CCNC(=O)c1cc(Nc2nc(-c3cnc4c(c3)N([C@H]3C[C@@](C)(N5CCCCC5)C3)C(=O)C4(C)C)cc3ncn(C(C)C)c23)c(F)c(F)c1Cl [Example 286, 2-chloro-5-((6-(3,3-dimethyl-1-((1s,3s)-3-methyl-3-(piperidin-1-yl)cyclobutyl)-2-oxo-2,3-dihydro-1H-pyrrolo[3,2-b]pyridin-6-yl)-3-isopropyl-3H-imidazo[4,5-c]pyridin-4-yl)amino)-N-ethyl-3,4-difluorobenzamide]	10.00
CC(C)n1cnc2cc(-c3ccc4c(c3)N([C@H]3C[C@@](C)(N5CCCCC5)C3)C(=O)C4(C)C)nc(Nc3cc(C(=O)NCC(F)F)c(Cl)c(F)c3F)c21 [Example 287, 2-chloro-N-(2,2-difluoroethyl)-5-((6-(3,3-dimethyl-1-((1s,3s)-3-methyl-3-(piperidin-1-yl)cyclobutyl)-2-oxoindolin-6-yl)-3-isopropyl-3H-imidazo[4,5-c]pyridin-4-yl)amino)-3,4-difluorobenzamide]	10.10
CCNC(=O)c1cc(Nc2nc(-c3ccc4c(c3)N([C@H]3C[C@@](C)(N5CCCCC5)C3)C(=O)C4(C)C)cc3ncn(C(C)C)c23)c(F)c(F)c1Cl [Example 288, 2-chloro-5-((6-(3,3-dimethyl-1-((1s,3s)-3-methyl-3-(piperidin-1-yl)cyclobutyl)-2-oxoindolin-6-yl)-3-isopropyl-3H-imidazo[4,5-c]pyridin-4-yl)amino)-N-ethyl-3,4-difluorobenzamide]	10.10
CC(C)n1cnc2cc(-c3ccc4c(c3)N([C@H]3C[C@@](C)(N5CCCCC5)C3)C(=O)C4(C)C)nc(Nc3cc(C(=O)NCC(F)F)c(Cl)cc3F)c21 [Example 289, 2-chloro-N-(2,2-difluoroethyl)-5-((6-(3,3-dimethyl-1-((1s,3s)-3-methyl-3-(piperidin-1-yl)cyclobutyl)-2-oxoindolin-6-yl)-3-isopropyl-3H-imidazo[4,5-c]pyridin-4-yl)amino)-4-fluorobenzamide]	10.15
CCNC(=O)c1cc(Nc2nc(-c3ccc4c(c3)N([C@H]3C[C@@](C)(N5CCCCC5)C3)C(=O)C4(C)C)cc3ncn(C(C)C)c23)c(F)cc1Cl [Example 290, 2-chloro-5-((6-(3,3-dimethyl-1-((1s,3s)-3-methyl-3-(piperidin-1-yl)cyclobutyl)-2-oxoindolin-6-yl)-3-isopropyl-3H-imidazo[4,5-c]pyridin-4-yl)amino)-N-ethyl-4-fluorobenzamide]	10.15
CC(C)n1cnc2cc(-c3cc4c(nc3F)C(C)(C)C(=O)N4[C@H]3C[C@@](C)(N4CCCCC4)C3)nc(Nc3cc(C(=O)NC4(C(F)F)CC4)c(Cl)c(F)c3F)c21 [Example 291, 2-chloro-N-(1-(difluoromethyl)cyclopropyl)-3,4-difluoro-5-((6-(5-fluoro-3,3-dimethyl-1-((1s,3s)-3-methyl-3-(piperidin-1-yl)cyclobutyl)-2-oxo-2,3-dihydro-1H-pyrrolo[3,2-b]pyridin-6-yl)-3-isopropyl-3H-imidazo[4,5-c]pyridin-4-yl)amino)benzamide]	10.10
CC(C)n1cnc2cc(-c3ccc4c(c3)N([C@H]3C[C@@](C)(N5CCCCC5)C3)C(=O)C4(C)C)nc(Nc3cc(C(=O)NC4(CF)CC4)c(Cl)c(F)c3F)c21 [Example 292, 2-chloro-5-((6-(3,3-dimethyl-1-((1s,3s)-3-methyl-3-(piperidin-1-yl)cyclobutyl)-2-oxoindolin-6-yl)-3-isopropyl-3H-imidazo[4,5-c]pyridin-4-yl)amino)-3,4-difluoro-N-(1-(fluoromethyl)cyclopropyl)benzamide]	10.15
